One assay relates to squirrel monkeys. The assay is described as follows: Food self-administration in squirrel monkeys. In kind it is in vivo, squirrel monkey (Saimiri sciureus). As to conditions: squirrel monkeys, 1, 3, and 10 mg/kg i.m., FIG. 8. An excerpt: Subjects: Seven adult male squirrel monkeys (Saimiri sciureus) weighing 0.8 to 1.1 kg were housed in individual cages in a temperature- and humidity-controlled room with unrestricted access to water. […] The monkeys were trained to self-administer either THC or food pellets prior to the study. Monkeys were fed (approximately two hours after the session) a daily food ration consisting of biscuits of high protein monkey diet (Lab Diet 5045, PMI Nutrition International, Richmond, Indiana). The number of biscuits (8-14) was determined for each monkey individually to maintain their body weights at a constant level throughout the study. Monkeys self-administering food pellets had the number of biscuits adjusted to maintain the motivation to perform a food-reinforced task. Fresh fruits, vegetables and environmental enrichment were provided daily. […]
Data analysis: The number of reinforcements (injections or pellets) per session represents total number of injections delivered during each 1-hour session. The rates of responding are expressed as responses per second averaged over the 1 h session, with time and responding during time-outs not included in calculations. Data are expressed as mean response rates and numbers of reinforcements per session ±SEM. […]

A further assay has as its target T1, human D2R (Homo sapiens, UniProt P14416).
T1 construct: expressed in transfected cells; host or cells: HEK293
The assay is described as follows: Radioligand competition binding, [3H]N-methylspiperone, D2R. The conditions noted are these: Table 1A; HEK 293 cells transfected with hD2LR, [3H]N-methylspiperone; read-out: D2R K ± SEM. As to the method: Binding at dopamine D2-like receptors was determined using previously described methods. (Chen et al. “Tranylcypromine substituted cis-hydroxycyclobutylnaphthamides as potent and selective dopamine D(3) receptor antagonists.” J. Med. Chem. 2014, 57, 4962-4968) Membranes were prepared from HEK293 cells expressing human D2R, D3R or D4R, grown in a 50:50 mix of DMEM and Ham's F12 culture media, supplemented with 20 mM HEPES, 2 mM L-glutamine, 0.1 mM non-essential amino acids, 1× antibiotic/antimycotic, 10% heat-inactivated fetal bovine serum, and 200 μg/mL hygromycin (Life Technologies, Grand Island, NY) and kept in an incubator at 37° C. and 5% CO2. Upon reaching 80-90% confluence, cells were harvested using pre-mixed Earle's Balanced Salt Solution (EBSS) with 5 μM EDTA (Life Technologies) and centrifuged at 3000 rpm for 10 min at 21° C. The supernatant was removed and the pellet was resuspended in 10 mL hypotonic lysis buffer (5 mM MgCl2·6H2O, 5 mM Tris, pH 7.4 at 4° C.) and centrifuged at 20,000 rpm for 30 min at 4° C. The pellet was then resuspended in fresh EBSS buffer made from 8.7 g/L Earle's Balanced Salts without phenol red (US Biological, Salem, MA), 2.2 g/L sodium bicarbonate, pH to 7.4. A Bradford protein assay (Bio-Rad, Hercules, CA) was used to determine the protein concentration and membranes were diluted to 500 μg/mL and stored in a −80° C. freezer for later use.
Radioligand competition binding experiments were conducted using thawed membranes. Test compounds were freshly dissolved in 30% DMSO and 70% H2O to a stock concentration of 100 μM. To assist the solubilization of free-base compounds, 10 μl of glacial acetic acid was added along with the DMSO. Each test compound was then diluted into 13 half-log serial dilutions using 30% DMSO vehicle; final test concentrations ranged from 10 μM to 10 pM. Previously frozen membranes were diluted in fresh EBSS to a 100 μg/mL (for hD2R or hD3R) or 200 μg/mL (hD4R) stock for binding. Radioligand competition experiments were conducted in glass tubes containing 300 μl fresh EBSS buffer with 0.2 mM sodium metabisulfite, 50 μl of diluted test compound, 100 μl of membranes (10 μg total protein for hD2R or hD3R, 20 μg total protein for hD4R), and 50 μl of [^3H]N-methylspiperone (0.4 nM final concentration; Perkin Elmer). Nonspecific binding was determined using 10 μM butaclamol (Sigma-Aldrich, St. Louis, MO) and total binding was determined with 30% DMSO vehicle. All compound dilutions were tested in triplicate and the reaction incubated for one hour at room temperature. The reaction was terminated by filtration through Whatman GF/B filters, presoaked for one hour in 0.5% polyethylenimine, using a Brandel R48 filtering manifold (Brandel Instruments, Gaithersburg, MD). The filters were washed 3 times with 3 mL of ice cold EBSS buffer and transferred to scintillation vials. 3 mL CytoScint liquid scintillation cocktail (MP Biomedicals, Solon, OH) was added and vials were counted using a Perkin Elmer Tri-Carb 2910 TR liquid scintillation counter (Waltham, MA). IC50 values for each compound were determined from dose-response curves and Ki values were calculated using the Cheng-Prusoff equation; these analyses were performed using GraphPad Prism version 5.00 for Windows (GraphPad Software, San Diego, CA). Reported Ki values were determined from least three independent experiments.

A further assay has as its system rats. The assay is described as follows: Thermal response (hot plate) in rats. In kind it is in vivo, rat. The conditions noted are these: hot plate 52 °C, FIG. 13. As to the method:
Methods: Compound (±)-29 was administered 15 minutes before saline or oxycodone challenge. Tests were performed after the rat was placed inside a transparent circular cage on a hot plate (52±0.2° C.). Licking the hind paw or jumping was considered as a sign of thermal nociception. The rat was then immediately removed from the hot plate and the time latency was recorded.

SMILES strings stand for the structures. “Also recorded” adds a separate entry of the source.

T1 sequence (P14416 whole entry): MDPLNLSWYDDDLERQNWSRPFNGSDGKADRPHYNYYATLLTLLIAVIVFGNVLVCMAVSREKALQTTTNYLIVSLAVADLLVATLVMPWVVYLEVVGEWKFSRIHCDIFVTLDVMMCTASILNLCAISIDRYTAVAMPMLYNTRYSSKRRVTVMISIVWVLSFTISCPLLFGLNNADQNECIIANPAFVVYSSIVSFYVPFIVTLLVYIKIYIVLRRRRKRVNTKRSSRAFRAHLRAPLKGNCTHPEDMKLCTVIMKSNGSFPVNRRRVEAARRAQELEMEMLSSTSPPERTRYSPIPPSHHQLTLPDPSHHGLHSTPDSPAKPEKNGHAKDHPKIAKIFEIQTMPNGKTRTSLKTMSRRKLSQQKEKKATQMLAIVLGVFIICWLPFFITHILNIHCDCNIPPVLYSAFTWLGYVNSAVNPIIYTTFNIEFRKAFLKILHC

On to `CCc1cc(Cl)c(OC)c(N2CCN(CC(O)CCNC(=O)c3cc4ccccc4[nH]3)CC2)c1` (racemic) [Compound 29, N-(4-(4-(3-chloro-5-ethyl-2-methoxyphenyl)piperazin-1-yl)-3-hydroxybutyl)-1H-indole-2-carboxamide], for which the values for the food self-administration result in the assay on squirrel monkeys and in the assay with squirrel monkeys (listed as (±)-29) were “has no effect on food self-administration; also recorded: without affecting food self-administration” and “no effect on food self-administration”, respectively. Besides, the Ki at human D2R is 17.1 ± 5.09 µM. The “thermal response after oxycodone challenge (oxycodone induced analgesia)” value in the assay on rats (30 minutes following oxycodone 2 mg/kg i.p.) is “no significant effects on animal's thermal response; also recorded: no effect on oxycodone induced analgesia”. For the same molecule, the “thermal response after saline challenge (analgesic effect of its own)” value in the assay on rats (30 minutes following saline 1 ml/kg i.p.) is listed as “no significant effects on animal's thermal response; also recorded: no analgesic effects of its own”.
